Like-named read-outs stand apart in the source and are kept apart here.
Legend:
[1] = target: T1, androgen receptor (Homo sapiens, UniProt P10275, T878A); experiment: Competition for androgen receptors with 3H-testosterone in LNCaP cytosol-nuclear extracts (RBA); type: binding; conditions: for RBA (relative binding affinity to the androgen receptor): Table II, 5α-DHT = 100, 6×10^-9 M 3H-testosterone
T1 construct: the presence of specific androgen receptors in LNCaP cells; endogenous in cells; extract or intact cells for the saturation analysis
T1 sequence (P10275 whole entry T878A): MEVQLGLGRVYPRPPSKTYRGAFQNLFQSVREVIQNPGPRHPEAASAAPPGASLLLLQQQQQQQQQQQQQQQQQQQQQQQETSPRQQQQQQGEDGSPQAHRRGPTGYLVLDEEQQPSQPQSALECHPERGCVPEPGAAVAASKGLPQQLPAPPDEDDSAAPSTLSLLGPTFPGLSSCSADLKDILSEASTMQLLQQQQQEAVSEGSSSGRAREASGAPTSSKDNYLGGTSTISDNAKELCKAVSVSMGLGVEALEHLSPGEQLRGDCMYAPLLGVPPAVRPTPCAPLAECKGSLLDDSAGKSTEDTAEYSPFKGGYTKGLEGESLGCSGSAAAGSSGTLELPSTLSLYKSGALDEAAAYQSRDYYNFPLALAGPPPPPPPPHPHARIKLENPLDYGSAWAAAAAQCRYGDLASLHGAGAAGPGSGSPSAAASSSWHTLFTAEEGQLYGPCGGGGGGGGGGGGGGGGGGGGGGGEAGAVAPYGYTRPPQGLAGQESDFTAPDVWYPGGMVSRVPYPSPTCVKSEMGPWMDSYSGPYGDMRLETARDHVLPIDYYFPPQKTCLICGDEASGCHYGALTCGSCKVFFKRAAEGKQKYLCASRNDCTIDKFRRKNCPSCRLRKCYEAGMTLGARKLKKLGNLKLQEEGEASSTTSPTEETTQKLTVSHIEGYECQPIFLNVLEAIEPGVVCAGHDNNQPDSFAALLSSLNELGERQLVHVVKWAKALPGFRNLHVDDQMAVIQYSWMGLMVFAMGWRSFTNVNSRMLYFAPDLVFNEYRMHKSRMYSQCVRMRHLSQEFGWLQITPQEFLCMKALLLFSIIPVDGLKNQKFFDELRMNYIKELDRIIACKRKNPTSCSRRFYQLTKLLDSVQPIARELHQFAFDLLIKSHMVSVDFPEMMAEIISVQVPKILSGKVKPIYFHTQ
Procedure: (§1) Steroid receptors measurement: The presence of intracellular sex steroid binding proteins was investigated in whole cell extracts as well as in intact cells. Cytosolic and nuclear extracts were obtained after centrifugation (105,000 g, 45 min.) of a sonicated cellular suspension in TKE buffer (10 mM Tris, 500 mM KCl, 0.5 mM EDTA, pH 7.4). Aliquots of this extract were incubated for 18 hours at 4° C. with increasing concentrations (2×10^- M to 2×10^-8 M) of labelled steroids, with and without a 200-fold excess of the corresponding unlabelled steroid. Bound and free fractions were separated by dextran-coated charcoal adsorption. Intact cells grown in monolayer culture were assayed for specific steroid binding [Olea-Serrano et al., Eur. J. Cancer Clin. Oncol. 21:965-973 (1983)]. Briefly, the cells were incubated in 12-well plates during 50 minutes at 37° C. in DME containing the labelled steroid with and without excess of cold competitor. The range of concentrations used was the same as that in the cytosolic-nuclear extract assay. […] The intracellular radioactivity was extracted with ethanol after ice-cold PBS washing. In both types of experiments, Scatchard analysis of the saturation data was used to quantify the maximal binding capacity (Bmax) and the affinity parameters (dissociation constant, Kd) using the SCAFIT program [Munson et al., Anal. Biochem. 107:220-239 (1980)].
Cytosol-nuclear extracts were used to study competition for androgen receptors. […] The relative binding affinity (RBA) was calculated from the equation: […]

[2] = test system: LNCaP cells; experiment: Phase 2 protocol for androgen antagonistic properties (LNCaP proliferation with 3×10^-10 M 5α-DHT plus test substance); conditions: for antagonistic activity, in words: Phase 2 protocol
[3] = test system: LNCaP cells; experiment: Phase 1 protocol to identify androgen agonist properties (LNCaP cell proliferation in CDHS medium); type: cell-based, human; conditions: for RELATIVE PROLIFERATIVE POTENCY: Table II, 5α-DHT = 1.0, 5 × 10^4 cell inoculum grown in CDHS for 8 days; for CHARACTERISTICS: classification from Phase 1 and Phase 2 protocols; for PHASE 1 CELL COUNT: final cell number per well at the optimal test conc.; for PHASE 1 CELL COUNT / cell yields compared with DHT alone, in words / OPTIMAL TEST CONC. (Phase 1): 10% CDHS; for cell yields compared with DHT alone, in words: 3×10^-8 M; for agonistic / proliferative activity, in words: Phase 1 protocol, CDHS-supplemented media
From the text: This protocol measures the potential agonistic properties of the substance under test. All manipulations are to be carried out under sterile conditions using disposable plastic tissue culture multiwell plates with all manipulations preferrably being performed in a tissue culture hood.
1. The cell line of choice is the LNCaP-FGC cell culture, an androgen-sensitive prostate tumor cell line. The LNaP cell line is routinely grown in 5% fetal bovine serum--supplemented Dulbecco's modified Eagle minimal essential medium (hereinafter "5% FBS/DME"), at 37° C. in a 95% air--5% CO2 atmosphere.
2. The cultured cells growing in 5% FBS/DME are harvested by treatment with trypsin (1:250)--EDTA (0.2%). The cells are detached by brief exposure to trypsin for about two minutes. To avoid excessive proteolysis, the reaction is quenched by addition of equal volumes of 5% FBS/DME. The resulting cell suspension is collected into a sterile centrifuge tube and resuspended by pipetting gently. The aliquots of this cell suspension thus obtained are dispersed by means of a Skatron dispenser into individual wells containing the seedling medium (1 ml of 5% FBS/DME per well) of a multiwell plate. Each final prepared suspension preferably contains 50,000 cells in a volume of 1.0 ml. It is desirable that the number of cells be counted and verified by means of a Coulter Counter (Coulter Electronics, Hialeah, FL).
The number of wells in each plate will correspond to the number of concentrations per test substances to be evaluated and thus is merely a question of choice or convenience to the user. Into each well, 25 microliter (hereinafter "ul") aliquots of the prepared cell suspension are added using a 1.0 ml syringe fitted with a 19 gauge needle attached to a repetitive Dunn pipetter (Skatron Dispenser). The microtiter plate is then gently shaken to avoid unequal cell distribution within each individual well. The seeded cells are then allowed to attach to the plastic surface of the well proper over a period of 24-72 hours' duration after which the fluid is changed to the experimental maintaining medium.
3 At the time of test, all the seeded cells in each well of the multiwell plate receive 10% heat inactivated--charcoal-dextran human stripped serum (CDHS) in DME at a volume of 0.9 ml per well. Although higher concentrations of CDHS may be utilized up to and including 40% concentrations, the 10% concentration is most preferred.
5. To the other prepared (seeded) wells, 100 ul of the test substance to be evaluated is added as a 10X stock solution to achieve final concentrations ranging from 10^-5 M to at least 10^-12 M. The substance under test is preferably prepared as a stock solution in ethanol, most preferrably as a 10^-3 M solution. All dilutions from the stock preparation are made using DME. The ethanol concentration in the culture medium should be kept below […] by volume. This preparative technique and precaution avoids the need to filter the various volumes of test substance to achieve sterility. This is particularly valuable because steroidal compositions are known to become adsorbed to the commercially obtained filter membranes used for sterilization. The addition of the test substance in appropriate concentrations to the cultured cells and the maintaining medium forms a series of individual reaction mixtures, each of which is varied only by the concentration of the test substance present in the well.
6. After the series of individual reaction mixtures are formed, all of the cultured cells under test in each well of the microtiter plate are incubated at 37° C. preferably in an atmosphere of 5% CO2 /95% air under saturating humidity. During this incubation time, it is desired and preferred that the cultured cells employed in the test be maintained in an atmosphere most advantageous for survival and growth of that cell line. The incubation period preferably is in the range of from 5 to 7 days' duration.

[4] = test system: 3H-E2 binding in LNCaP cells; experiment: Competition with 3H-E2 binding in LNCaP cells; set-up: species or system human
Procedure: as §1

[5] = with 3×10^-10 M 5α-DHT, 10% CDHS

| Molecule | antagonistic activity, in words [2] | CHARACTERISTICS [3] | PHASE 1 CELL COUNT [3] | further results |
| --- | --- | --- | --- | --- |
| C[C@]12C[C@H](CCl)[C@@H]3c4ccc(O)cc4CC[C@H]3[C@@H]1CC[C@@H]2O [Org 4333, 11β-chloromethyl estradiol] | no antagonistic activity | full agonists | 4.0 × 10^5 | RBA (relative binding affinity to the androgen receptor) [1]: 1.2; RELATIVE PROLIFERATIVE POTENCY [3]: 0.01 |
| C[C@]12CC[C@@H]3c4ccc(O)cc4CC[C@H]3[C@@H]1CCC2=O [Estrone, estrone] |  |  |  | RBA (relative binding affinity to the androgen receptor) [1]: 0.1 |
| C[C@@H]1CC2=CC(=O)CC[C@@H]2[C@H]2CC[C@@]3(C)[C@@H](CC[C@]3(C)O)[C@@H]21 [mibolerone, 7α,17α-dimethyl-19-nortestosterone] |  | full agonist | 2.5 × 10^5 |  |
| CC(C)(O)C(=O)Nc1ccc([N+](=O)[O-])c(C(F)(F)F)c1 [hydroxyflutamide] | absence of antagonistic effects | full agonist | 3.9 × 10^5 | RBA (relative binding affinity to the androgen receptor extracted from LNCaP) ([1]; Table III, Testosterone = 1): 0.004; cell yields compared with DHT alone, in words [3]: increased cell yields at values consistently above those obtained with DHT alone; RPP (relative proliferation potency) ([3]; Table III, Testosterone = 1, 10^5 cell inoculum grown in CDHS for 7 days): 0.01 |
| C[C@]12CCC(=O)C[C@@H]1CC[C@@H]1[C@@H]2CC[C@]2(C)[C@@H](O)CC[C@@H]12 [5α-DHT, 5α-dihydrotestosterone] |  | full agonist | 2.5 × 10^5 |  |
| CC(=O)[C@H]1CC[C@H]2[C@@H]3CCC4=CC(=O)CC[C@]4(C)[C@H]3CC[C@]12C [progesterone] | no antagonistic activity | full agonists | 4 × 10^5 | agonistic / proliferative activity, in words [3]: effective and potent androgen agonists |
| C[C@]12CC[C@H]3[C@@H](CCC4=CC(=O)CC[C@@]43C)[C@@H]1CC[C@@H]2O [testosterone] |  | full agonist | 2.6 × 10^5 | agonistic / proliferative activity, in words [3]: proliferative pattern similar to that obtained with 5α-DHT |
| CC(=O)O[C@]1(C(C)=O)CC[C@H]2[C@@H]3C=C(Cl)C4=CC(=O)[C@@H]5C[C@@H]5[C@]4(C)[C@H]3CC[C@@]21C [cyproterone acetate] |  | full agonist | 4.1 × 10^5 | cell yields compared with DHT alone, in words [3]: increased cell yields at values consistently above those obtained with DHT alone |
| CC(=O)[C@H]1CC[C@H]2[C@@H]3CC=C4C[C@@H](O)CC[C@]4(C)[C@H]3CC[C@]12C [pregnenolone] |  | full agonist | 3.9 × 10^5 | proliferative potency ([3]; compared with 5α-DHT values): 1% |
| CC1(C)NC(=O)N(c2ccc([N+](=O)[O-])c(C(F)(F)F)c2)C1=O [anandron, 5,5-dimethyl-3-(4-nitro-3-(trifluoromethyl)-phenyl)-2,4-imidasolidinedione] |  | full agonist | 4.0 × 10^5 | cell yields compared with DHT alone, in words [3]: increased cell yields at values consistently above those obtained with DHT alone |
| epidermal growth factor: Epidermal Growth Factor (Collaborative Research; Creative Biomolecules) (NSDSECPLSHDGYCLHDGVCMYIEALDKYACNCVVGYIGERCQYRDLKWWELR; Epidermal growth factor; UniProt P01133 971-1023, looked up) |  | quiescent |  | OPTIMAL TEST CONC. (Phase II) [2, 5]: 100 ng/mL; OPTIMAL TEST CONC. (Phase 1) [3]: 100 ng/mL |
| insulin: Insulin (Eli Lilly Company) |  | quiescent | 5 × 10^4 | OPTIMAL TEST CONC. (Phase II) [2, 5]: 100 ng/mL; OPTIMAL TEST CONC. (Phase 1) [3]: 100 ng/mL |
| CCC(=O)C1(C)CCC2C3CCC4=CC(=O)CCC4=C3CCC21C (stereo not drawn) [R5020, 17βmethyl-,21-methyl-19-nor-pregna-4,9-diene-3,10-dione] | no antagonistic activity | full agonists | 4.0 × 10^5 | RBA (relative binding affinity to the androgen receptor) [1]: 11; agonistic / proliferative activity, in words [3]: effective and potent androgen agonists; RELATIVE PROLIFERATIVE POTENCY [3]: 0.01 |
| CC/C(=C(/CC)c1ccc(O)cc1)c1ccc(O)cc1 [DES, diethylstilbestrol] |  | full antagonist | 5 × 10^4 | competition with 3H-E2 binding, in words [4]: did not compete; agonistic / proliferative activity, in words [3]: no agonistic activity at all |
| C[C@]1(O)CC[C@H]2[C@@H]3CCC4=CC(=O)CCC4=C3C=C[C@@]21C [R1881, 17β-hydroxy-17α-methyl-estra-4,9,11-trien-3-one] | no antagonistic activity | full agonists | 2.5 × 10^5 |  |
| CC(=O)O[C@]1(C(C)=O)CC[C@H]2[C@@H]3C[C@H](C)C4=CC(=O)CC[C@]4(C)[C@H]3CC[C@@]21C [medroxy progesterone, medroxyprogesterone acetate] | absence of antagonistic effects | full agonist | 4.0 × 10^5 | OPTIMAL TEST CONC. (Phase II) [2]: 3 µM; PHASE II CELL COUNT [2]: 4.0 × 10^5 |
| C[C@]12CCC(=O)C[C@H]1CC[C@@H]1[C@@H]2CC[C@]2(C)[C@@H](O)CC[C@@H]12 [5β-DHT, 5β-dihydrotestosterone] |  | full agonist | 2.5 × 10^5 |  |
| C[C@]12CCC(=O)C=C1CC[C@@H]1[C@@H]2[C@@H](O)C[C@@]2(C)[C@H]1CC[C@]2(O)C(=O)CO [hydrocortisone] |  | quiescent | 5 × 10^4 |  |
| C[C@]12CC[C@@H](O)C[C@@H]1CC[C@@H]1[C@@H]2CC[C@]2(C)[C@@H](O)CC[C@@H]12 [3α-diol, 5α-androstene, 3α,17β-diol] |  | full agonist | 2.5 × 10^5 |  |
| CC(C)C(=O)Nc1ccc([N+](=O)[O-])c(C(F)(F)F)c1 [flutamide] |  | quiescent | 5 × 10^4 | agonistic / proliferative activity, in words [3]: devoid of activity |
